The target in data set [1] is human GPR40 receptor (Homo sapiens, UniProt O14842). In words: IP1 accumulation measurements using the IPOne assay system. In kind it is cell-based. The following applies: 1321N1 cells stably expressing human GPR40 receptor, stimulation 1 h at 37° C. On the procedure: IP1 accumulation measurements using the IPOne assay system—1321N1 cells stably expressing human GPR40 receptor (Euroscreen, Belgium) are seeded 24 h before the assay in white 384-well plates in culture medium containing 10% FCS, 1% Na-Pyruvate and 400 μg/mL G418. IPi is assayed according to the manufacturer's description (Cisbio Bioassays, France). In brief, the assay is started by substitution of the culture medium by stimulation buffer (Hepes 10 mM, CaCl2 1 mM, MgCl2 0.5 mM, KCl 4.2 mM, NaCl 146 mM, glucose 5.5 mM and LiCl 50 mM, pH 7.4). Cells are stimulated for 1 h at 37° C., 5% CO2 by addition of the compounds that are diluted in stimulation buffer containing LiCl. Assays are stopped by adding HTRF-conjugates (IP1-d2 and Anti-IP1 cryptate Tb) and lysis buffer, provided by the manufacturer. After an incubation time of 1 h at room temperature plates are measured using an EnVision™, Perkin Elmer. The obtained fluorescence ratios at 665/615 […] are then used to calculate the pEC50 values using Assay Explorer 3.3 Software (Accelrys, Inc.) by interpolation using an IP1 reference curve and subsequent sigmoidal curve fitting allowing for a variable hill slope.

Data set [2] is described as follows: Aqueous solubility in buffer versus acetonitrile/water (1/1), LC-UV. In kind it is physicochemical. The settings on record: kinetic from dmso stock, buffer pH 2.2, 24 h shaking, 2.5% DMSO, ">" if more than 90% dissolved. The method, then:
The aqueous solubility of the compounds of the invention is determined by comparing the amount dissolved in buffer to the amount in an acetonitrile/water (1/1) solution. Starting from a 10 mM DMSO stock solution aliquots are diluted with acetonitrile/water (1/1) or buffer, respectively. After 24 h of shaking, the solutions are filtrated and analyzed by LC-UV. The amount dissolved in buffer is compared to the amount in the acetonitrile solution.
Solubility is usually being measured from 0.001 to 0.125 mg/mL at a DMSO concentration of 2.5%. If more than 90% of the compound is dissolved in buffer, the value is marked with “>”.

The structures appear in SMILES notation. In brackets after ≈: the same amount, converted by molar mass. Bounds are passed on as bounds.

The EC50 is the midpoint of the concentration-response curve. In general, solubility refers to how much of the substance goes into solution per volume.

Sequence of human GPR40 receptor (O14842 whole entry): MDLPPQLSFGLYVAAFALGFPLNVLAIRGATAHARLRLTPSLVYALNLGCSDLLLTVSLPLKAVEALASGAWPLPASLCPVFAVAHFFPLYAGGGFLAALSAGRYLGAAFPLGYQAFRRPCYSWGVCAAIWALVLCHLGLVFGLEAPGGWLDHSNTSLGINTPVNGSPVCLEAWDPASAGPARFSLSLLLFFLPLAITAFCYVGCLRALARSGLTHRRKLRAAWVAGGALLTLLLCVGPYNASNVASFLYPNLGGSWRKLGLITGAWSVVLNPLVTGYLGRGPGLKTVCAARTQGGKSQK

`Cc1cc(OCCC(C)(C)O)cc(C)c1-c1ccc(F)c(CNc2ccc([C@H]3C[C@@H]3C(=O)O)cn2)c1` [Example 1] returned an EC50 in data set [1] of 0.045 µM. The same compound showed a solubility at 24 h in data set [2] of 0.087 mg/mL (≈ 177 µM).
The like results for `Cc1ccc(Cl)c(-c2ccc(F)c(CNc3ccc([C@H]4C[C@@H]4C(=O)O)cn3)c2)c1Cl` [Example 25] were, in that order, 0.041 µM and 0.083 mg/mL (≈ 186 µM).
In data set [1], `COc1cc(-c2cc(C)c(-c3cc(CNc4ccc([C@H]5C[C@@H]5C(=O)O)cn4)c(F)cc3F)c(C)c2)ccn1` [Example 99] came in with an EC50 of 0.008 µM. In data set [2], the concentration in solution (solubility at 24 h) was 0.097 mg/mL (≈ 188 µM).
For `COc1cc(C)c(-c2cc(CNc3ccc([C@H]4C[C@@H]4C(=O)O)cn3)c(F)cc2F)c(C)c1` [Example 68], in that order: 0.059 µM and above 0.12 mg/mL.
The compound `O=C(O)[C@H]1C[C@@H]1c1ccc(NCc2ccc(C(F)(F)F)c(-c3ccc(OCC4CC4)cc3)c2)nc1` [Example 7, (1S,2S)-2-{6-[(4′-Cyclopropylmethoxy-6-trifluoromethyl-biphenyl-3-ylmethyl)-amino]-pyridin-3-yl}-cyclopropanecarboxylic acid] gave an EC50 in data set [1] of 0.034 µM. For the same compound, in data set [2], the solubility at 24 h is 0.03 mg/mL (≈ 62.2 µM).
Consider `COc1cc(C)c(-c2ccc(F)c(CNc3ccc([C@H]4C[C@@H]4C(=O)O)cn3)c2)c(C)c1` [Example 26], for which the EC50 in data set [1] is 0.079 µM. The compound also returned a solubility at 24 h in data set [2] of 0.091 mg/mL (≈ 216 µM).
The like results for `CCc1cccc(CC)c1-c1cc(CNc2ccc([C@H]3C[C@@H]3C(=O)O)cn2)c(F)cc1F` [Example 93] were, in that order, 0.072 µM and 0.082 mg/mL (≈ 188 µM).
For `Cc1cnc(-c2cc(C)c(-c3ccc(F)c(CNc4ccc([C@H]5C[C@@H]5C(=O)O)cn4)c3)c(C)c2)nc1` [Example 53], in that order: 0.015 µM and 0.078 mg/mL (≈ 162 µM).
In data set [1], `Cc1cc(C#N)cc(C)c1-c1ccc(F)c(CNc2ccc([C@H]3C[C@@H]3C(=O)O)cn2)c1` [Example 35] gave an EC50 of 0.137 µM. Besides, in data set [2], the solubility at 24 h came to 0.086 mg/mL (≈ 207 µM).
`COc1cc(OC)c(-c2ccc(F)c(CNc3ccc([C@H]4C[C@@H]4C(=O)O)cn3)c2)c(OC)c1` [Example 30]: in data set [1], the EC50 was 0.877 µM. In addition, the concentration in solution in data set [2] (solubility at 24 h) was 0.112 mg/mL (≈ 248 µM).
Turning to `Cc1cc(OC2CCOCC2)cc(C)c1-c1ccc(F)c(CNc2ccc([C@H]3C[C@@H]3C(=O)O)cn2)c1` [Example 42], it took 0.1 µM to reach a half-maximal effect in data set [1] (EC50). In data set [2], this compound came in with a solubility at 24 h of 0.087 mg/mL (≈ 177 µM).
In the case of `Cc1cnc(-c2cc(C)c(-c3cc(CNc4ccc([C@H]5C[C@@H]5C(=O)O)cn4)c(F)cc3F)c(C)c2)nc1` [Example 95], the EC50 in data set [1] stood at 0.011 µM. The compound further gave a solubility at 24 h in data set [2] of 0.088 mg/mL (≈ 176 µM).
The like results for `Cc1ccc(Cl)c(-c2cc(CNc3ccc([C@H]4C[C@@H]4C(=O)O)cn3)c(F)cc2F)c1Cl` [Example 67] were, in that order, 0.031 µM and 0.084 mg/mL (≈ 181 µM).
The like results for `Cc1cc(-c2ccnn2C)cc(C)c1-c1cc(CNc2ccc([C@H]3C[C@@H]3C(=O)O)cn2)c(F)cc1F` [Example 92] were, in that order, 0.016 µM and 0.103 mg/mL (≈ 211 µM).
`Cc1cc(O[C@@H]2CCOC2)cc(C)c1-c1cc(CNc2ccc([C@H]3C[C@@H]3C(=O)O)cn2)c(F)cc1F` [Example 80] showed an EC50 in data set [1] of 0.059 µM. This compound yielded a solubility at 24 h in data set [2] of 0.106 mg/mL (≈ 214 µM).
For `Cc1cc(O[C@H]2CCOC2)cc(C)c1-c1ccc(F)c(CNc2ccc([C@H]3C[C@@H]3C(=O)O)cn2)c1` [Example 38], in that order: 0.094 µM and 0.099 mg/mL (≈ 208 µM).
In turn, `Cc1cc(OCC(C)(C)C#N)cc(C)c1-c1cc(CNc2ccc([C@H]3C[C@@H]3C(=O)O)cn2)c(F)cc1F` [Example 88] displayed an EC50 in data set [1] of 0.081 µM.
Still for that read-out and setting: the result for `O=C(O)[C@H]1C[C@@H]1c1ccc(NCc2cc(-c3c(Cl)cccc3Cl)ccc2F)nc1` [Example 31] reads 0.105 µM.
As to `Cc1cc(-c2cc(=O)n(C)cn2)cc(C)c1-c1ccc(F)c(CNc2ccc([C@H]3C[C@@H]3C(=O)O)cn2)c1` [Example 43], in data set [1], the EC50 was 0.054 µM. The compound also gave a solubility at 24 h in data set [2] of 0.107 mg/mL (≈ 215 µM).
Compound `COc1cc(F)c(-c2ccc(F)c(CNc3ccc([C@H]4C[C@@H]4C(=O)O)cn3)c2)c(F)c1` [Example 19] returned an EC50 in data set [1] of 2.1 µM.
Compound `Cc1cccc(C)c1-c1cc(CNc2ccc([C@H]3C[C@@H]3C(=O)O)cn2)c(F)cc1F` [Example 61] yielded an EC50 in data set [1] of 0.036 µM. The compound further had a solubility at 24 h in data set [2] of 0.042 mg/mL (≈ 103 µM).
Turning to `Cc1cc(OCC2(C)COC2)cc(C)c1-c1cc(CNc2ccc([C@H]3C[C@@H]3C(=O)O)cn2)c(F)cc1F` [Example 87], in data set [1], the EC50 was 0.089 µM.
In the case of `Cc1cc(OCC2(O)CCOCC2)cc(C)c1-c1cc(CNc2ccc([C@H]3C[C@@H]3C(=O)O)cn2)c(F)cc1F` [Example 97], in data set [1], a half-maximal effect (EC50) was put at 0.189 µM. In data set [2], this compound showed a solubility at 24 h of 0.123 mg/mL (≈ 228 µM).
In data set [1], `N#Cc1cccc(C#N)c1-c1ccc(F)c(CNc2ccc([C@H]3C[C@@H]3C(=O)O)cn2)c1` [Example 23] returned an EC50 above 10 µM.
The compound `Cc1cc(OCC2(O)CCOCC2)cc(C)c1-c1ccc(F)c(CNc2ccc([C@H]3C[C@@H]3C(=O)O)cn2)c1` [Example 55] displayed an EC50 in data set [1] of 0.22 µM. Besides, in data set [2], the solubility at 24 h worked out at 0.122 mg/mL (≈ 234 µM).
Compound `Cc1cc(OCc2ccccc2)cc(C)c1-c1ccc(F)c(CNc2ccc([C@H]3C[C@@H]3C(=O)O)cn2)c1` [Example 47] returned an EC50 in data set [1] of 0.107 µM.
In data set [1], `COc1cc(OC)c(Cl)c(-c2ccc(F)c(CNc3ccc([C@H]4C[C@@H]4C(=O)O)cn3)c2)c1Cl` [Example 33] registered an EC50 of 0.128 µM.
The compound `O=C(O)[C@H]1C[C@@H]1c1ccc(NCc2cc(-c3c(F)cc(F)cc3F)c(F)cc2F)nc1` [Example 81] yielded an EC50 in data set [1] of 0.491 µM.
Compound `Cc1cc(OCC2(O)CCSCC2)cc(C)c1-c1cc(CNc2ccc([C@H]3C[C@@H]3C(=O)O)cn2)c(F)cc1F` [Example 98] displayed an EC50 in data set [1] of 0.102 µM.
On to `Cc1cc(-c2ccnn2C)cc(C)c1-c1ccc(F)c(CNc2ccc([C@H]3C[C@@H]3C(=O)O)cn2)c1` [Example 50], for which, in data set [1], a half-maximal response (EC50) required 0.025 µM.
Still for that read-out and setting: under `O=C(O)[C@H]1C[C@@H]1c1ccc(NCc2cc(-c3c(C(F)(F)F)cccc3C(F)(F)F)ccc2F)nc1` [Example 21] stands 0.834 µM; under `O=C(O)[C@H]1C[C@@H]1c1ccc(NCc2cc(-c3c(F)cc(OC4CC4)cc3F)ccc2F)nc1` [Example 29], 0.57 µM.
Turning to `Cc1cc(C(N)=O)cc(C)c1-c1ccc(F)c(CNc2ccc([C@H]3C[C@@H]3C(=O)O)cn2)c1` [Example 34], it took 0.612 µM to reach a half-maximal effect in data set [1] (EC50).
Same read-out and setting: under `O=C(O)[C@H]1C[C@@H]1c1ccc(NCc2cc(-c3c(F)cccc3F)c(F)cc2F)nc1` [Example 63] stands 0.931 µM; under `CNC(=O)c1cc(C)c(-c2cc(CNc3ccc([C@H]4C[C@@H]4C(=O)O)cn3)c(F)cc2F)c(C)c1` [Example 102], 0.42 µM.
Turning to `COc1cc(OC)c(Cl)c(-c2cc(CNc3ccc([C@H]4C[C@@H]4C(=O)O)cn3)c(F)cc2F)c1Cl` [Example 75], a half-maximal response in data set [1] (EC50) required 0.05 µM.
In turn, `COc1c(F)c(F)c(-c2cc(CNc3ccc([C@H]4C[C@@H]4C(=O)O)cn3)c(F)cc2F)c(F)c1F` [Example 64] registered an EC50 in data set [1] of 0.123 µM.
On the same count and under the same terms, the result for `Cc1cc(-c2ccn(C)c(=O)n2)cc(C)c1-c1cc(CNc2ccc([C@H]3C[C@@H]3C(=O)O)cn2)c(F)cc1F` [Example 91] reads 0.043 µM.
In turn, `Cc1cc(-c2nnn(C)n2)cc(C)c1-c1ccc(F)c2c1CC[C@H]2Oc1ccc([C@H]2C[C@@H]2C(=O)O)cc1` [WO 2013/178575 Example 45, reference compound] gave a solubility at 24 h in data set [2] below 0.001 mg/mL.
The compound `Cc1cc(OCCCS(C)(=O)=O)cc(C)c1-c1ccc(F)c(CNc2ccc([C@H]3C[C@@H]3C(=O)O)cn2)c1` [Example 12] had an EC50 in data set [1] above 10 µM.
Take `Cc1cc(OCC(C)(C)C#N)cc(C)c1-c1ccc(F)c(CNc2ccc([C@H]3C[C@@H]3C(=O)O)cn2)c1` [Example 46]: the EC50 in data set [1] stood at 0.096 µM.
Consider `Cc1cc(-c2ccn(C)c(=O)n2)cc(C)c1-c1ccc(F)c(CNc2ccc([C@H]3C[C@@H]3C(=O)O)cn2)c1` [Example 49], for which a half-maximal effect in data set [1] (EC50) was put at 0.072 µM.
Same read-out and setting: under `Cc1cc(OCC2CCOC2)cc(C)c1-c1ccc(F)c(CNc2ccc([C@H]3C[C@@H]3C(=O)O)cn2)c1` (some centres unmarked) [Example 36] stands 0.085 µM; under `Cc1cc(OCC2(C)COC2)cc(C)c1-c1ccc(F)c(CNc2ccc([C@H]3C[C@@H]3C(=O)O)cn2)c1` [Example 45], 0.147 µM; under `COc1cc(OC)c(F)c(-c2ccc(F)c(CNc3ccc([C@H]4C[C@@H]4C(=O)O)cn3)c2)c1F` [Example 52], 1.34 µM.
Same read-out and setting: the result for `CC(C)c1ccccc1-c1ccc(F)c(CNc2ccc([C@H]3C[C@@H]3C(=O)O)cn2)c1` [Example 54] reads 0.317 µM.
As for `Cc1cc(C(N)=O)cc(C)c1-c1cc(CNc2ccc([C@H]3C[C@@H]3C(=O)O)cn2)c(F)cc1F` [Example 76], the EC50 in data set [1] came to 0.34 µM.
Still for that read-out and setting: the result for `Nc1cc(F)c(-c2ccc(F)c(CNc3ccc([C@H]4C[C@@H]4C(=O)O)cn3)c2)c(F)c1` [Example 28] reads 6.72 µM.
